Laboratory results taken from US8049063B2 (Zhejiang University, priority 2005, dated 2011).

Assays:
[1] = tested on: 8077S calli; format: cell-based, rice
From the text: FIG. 6. Bensulfuron-methyl selection results of Cyp81A6-transformed 8077S calli. Left: transgenic; right: non-transgenic control.
(§1) The full length sequence of candidate gene Cyp81A6 was obtained through lump-sum amplification using LA TaqTM polymerase reagent kit purchased from Takara Company. The long fragment PCR specific primer pairs (forward primer: 5′-[…]-3′ (SEQ ID NO: 40); reverse primer: 5″-[…]-3′ (SEQ ID NO: 41), synthesized by Shanghai Sangon) used in this experiment were designated at a start from 124 bp before and end with 4145 bp after BamHI enzyme digestion site located at 5′-end of Cyp81A6 gene, respectively, according to the DNA sequence publicized by indica rice genome database. According to the designing, these primers have a BstEII enzyme cutting site attached to the 3′-end of the primers, which is convenient for production of cohesive end and ligation during cloning. The amplified fragment with the total size of […] by this pair of primers is consisted of those parts: 124 bp upstream sequence of the BamHI digestion site, 1321 bp promoter sequence, 2321 bp sequence of leader region plus exon plus intron , 272 bp 3′-UTR sequence, followed by 288 bp genome sequence (including the 7 bp BstEII recognition site and 5 bp protection base). […]

[2] = tested on: Cyp81A6 transgenic 8077S plants; test: Bentazon test of Cyp81A6 transgenic 8077S seedlings (complementation); format: in vivo, rice
From the text: FIG. 7. […] Left: negative control of 8077S; middle: transgenic seedling; right: positive control of W6154S.
as §1

[3] = tested on: Cyp81A6 antisense RNA transformed Minghui 63 plants; test: Bentazon leaf smear test of Cyp81A6 antisense RNA transformed Minghui 63 plants; format: in vivo, rice; details: 1250 mg/L smeared on leaves, 3 leaves/plant; antisense transgenic Minghui 63; 36 hours later
From the text: Design anti-sense RNA (RNAi) sequences (see the 1939th to 2439th nucleotide sequence of SEQ ID NO.1) in according with the coding sequence of the cloned rice Cyp81A6 gene. Fuse these antisense RNA (RNAi) sequence to the rice constitutive expression promoter such as Actin1 and then insert them into the binary vectors of pAANT11 (see FIG. 16). Use this vector to transform wild-type rice such as Minghui 63 using the modified procedures of Agrobacterium-mediated transformation method. After that, use the specific primers to carry on the PCR amplification analysis of transgenic TO generation plants for molecular confirmation.

SMILES: COC(=O)c1ccccc1CS(=O)(=O)NC(=O)Nc1nc(OC)cc(OC)n1 [BSM, bensulfuron-methyl]
- growth of non-transgenic calli on herbicide medium [1]: stop to grow

SMILES: CC(C)N1C(=O)c2ccccc2NS1(=O)=O [bentazon]
- response of PCR-positive Cyp81A6 transformants to bentazon ([2]; 1250 mg/l, regenerated transgenic 8077S plantlets): recovered the resistance
- resistance of transgenic line carrying the entire CYP81A6 sequence ([2]; 8077S mutant genome transformed with entire CYP81A6 gene): highly resistant
- outcome of treated leaves and plants [3]: faded and died
